According to patent publication US20140294729A1, “METHODS FOR IDENTIFICATION AND USE OF AGENTS TARGETING CANCER STEM CELLS” (Whitehead Institute for Biomedical Research, priority 2008, published 2014):
“Also recorded” adds a separate entry of the source.

Legend:
Format in all cases: cell-based, human
HMLERshEcad cells = assay: Resistance to cytotoxic agents, transformed HMLERshCntrl vs HMLERshEcad dose response; details: FIG. 2A
Description: (§1) FIGS. 2A-2D depict that passage through the EMT leads to resistance to conventional chemotherapy drugs. FIG. 2A depicts dose response curves of transformed HMLERshCntrl (light gray line) and HMLERshEcad (dark gray line) cells treated with Paclitaxel and Doxorubicin. Dotted line denotes the 50% fraction surviving. […] FIG. 2B depicts the response of immortalized cells to chemotherapy drugs. HMLEshCntrl and HMLEshEcad cells were treated with the indicated drugs at three concentrations for 3 days and assayed for viability using the MTS assay. While Doxorubucin, Actinomycin D, Paclitaxel and Campthotecin are chemotherapeutic drugs, Staurosporine is a general kinase inhibitor that potently induce apoptosis. FIGS. 2C and 2D depict paclitaxel treatment leads to selective expansion of a minority cell population that has undergone an EMT. Control HMLE cells and GFP expressing HMLEshEcad cells were mixed at a ratio of 20:1 and seeded onto 6-well plates in triplicate. DMSO or Paclitaxel at 2.5 nm or 10 nm concentration was added onto the mixed cell populations 1 day after seeding followed by a 3 day incubation. The number of GFP-positive cells at the end of treatment were analyzed by flow cytometry. […] Note the increase in GFP positivity from 5% to 14% upon […] Paclitaxel treatment.
Since the HMLERsiEcad cells have a 100-fold increase in the frequency of cells capable of seeding tumors, we examined their response to two commonly used chemotherapy drugs, relative to HMLERsiGFP controls. We treated cultured HMLERsiGFP and HMLERsiEcad cells for a period of 3 days with either doxorubicin or paclitaxel, at various concentrations.
(§2) Doxorubicin, paclitaxel, actinomycin D, campthotecin and staurosporine were purchased from Sigma and dissolved in dimethyl sulfoxide (dmso). 5000 cells in 100 ul of medium were plated per well in 96-well plates. 24 hrs after seeding, compounds at the indicated concentration were added to wells (5 wells per each concentration). Dmso treatment was used as negative control. Cell viability was measured after 72 hrs using the CellTiter96 AQueous Assay (Promega) according to manufacturer's instructions. Dose response curves were generated with GraphPad Prism software (GraphPad Software, Inc.).

HMLEshEcad cells [1] = assay: Resistance to cytotoxic agents, immortalized HMLEshCntrl vs HMLEshEcad (MTS viability); details: three concentrations, FIG. 2B
Description: as §1
However, we postulated that the differential drug sensitivity observed was, rather, a consequence of the respective differentiation states of the immortalized cells from which the cancer cell lines were derived. To directly examine this hypothesis, we treated HMLEsiGFP and HMLEsiEcad cells for a period of […] with a series of chemical compounds at 3 different concentrations each. Included in these compounds were the established chemotherapy drugs Doxorubicin, Paclitaxel, Actinomycin D, Camptothecin as well as a broad kinase inhibitor, Staurosporine.
as §2

HMLEshEcad cells [2] = assay: Dose-response viability of HMLEshCntrl vs HMLEshEcad cells (validation of hits, 384-well, Cell-Titer-Glo); details: FIG. 4A; for selective toxicity towards HMLEshEcad cells relative to HMLEshCntrl cells: dose response on retesting
Description: (§3) FIG. 4A depicts dose response curves of HMLEshCntrl (A, light gray curve) and HMLEshEcad (A, dark gray curve) cells treated with the 8 compounds identified during the initial screen. 1000 cells of each line were seeded onto 384 well plates and treated with 8 different concentrations of compounds within a 2.5 log range. The cell viability after 3 day treatment was measured by Cell-Titer-Glo. […] FIG. 4B depicts dose response curves of HMLEshCntrl (curve with square data points) and HMLE-Twist (curve with triangular data points) cells treated with the same compounds as in (A). Note that selectivity of Salinomycin, Abamectin, Etoposide and Nigericin (Top, Left-to-Right) is retained even though a different method of EMT induction is used. […] 1 Day after seeding DMSO, Salinomycin (1.25 or 5 μM) or Abamectin (0.25 or 1.25 μM) was added at the indicated concentration. As the GFP vector contains a Blasticidin resistance gene, we used Blasticidin treatment as a positive control for the expansion of GFP-expressing control HMLE cells. After 3 day incubation the mix population of cells were analyzed by flow cytometry and the percentage of GFP-positive cells were determined. […] FIG. 4D depicts dose response curves of transformed HMLERshCntrl (light gray line) and HMLERshEcad (dark gray lines) cells treated with Salinomycin and Abamectin. Dotted line denotes the 50% fraction surviving.
We pursued 8 of the 32 compounds for further study and evaluated their effects across a range of doses.
For each of these compounds, we evaluated the effect on cell viability across a series of doses for sibling cell lines either induced into or not induced into EMT.
Information about the general automated HTS protocol is available online at broad.harvard.edu/chembio/index.html. The assay was initiated by plating 40 μL of medium containing 1000 cells/well into white 384-well opaque-bottom plates (Nunc, Rochester, N.Y.) using an automated plate filler (Bio-Tek μFiller; Winsooki, Vt.) and allowing the cells to adhere for 24 hours. 100 nL of compound stock solutions in dmso was transferred from stock plates into the 384-well assay plates using an automated pin-based compound transfer robot (CyBio CyBi-Well vario; Woburn, Mass.). For most compounds the final concentration in each well was calculated to be 10 uM.
The screen was performed in duplicate. For negative controls, entire dmso-treated control plates were employed, in addition to dmso-only control wells that were incorporated into each compound assay plate. The cells were assayed for luciferase activity with the addition 20 ul of CellTiter-Glo Luminescent Cell Viability Assay solution (Promega). The luminescent signal from each plate was detected using an automated plate reader (Perkin-Elmer Envision 1; Wellesley, Mass.).
(§4) Individual compounds were purchased from Sigma and dissolved in DMSO with the exception of nigericin which was dissolved in 100% ethanol. Activity of the compounds were quantified by generating dose-response curves for HMLE-shCntrl, HMLE-shEcad and HMLE-Twist under the same cell density and culture conditions described for the initial screen, using the 384-well plate based system.

HMLE-Twist cells [3] = assay: Dose-response viability of HMLEshCntrl vs HMLE-Twist cells; details: EMT induced by Twist, FIG. 4B
Description: as §3, §4

HMLE-Twist cells [4] = assay: Co-culture of GFP-expressing HMLE cells and unlabelled HMLE-Twist cells, FACS for GFP positivity; details: FIG. 4C
Description: as §3
To examine the effects of salinomycin and abamectin treatment on heterogeneous populations of epithelial cells that have and epithelial cells that have not undergone EMT, we co-mixed GFP-labeled HMLE cells with unlabeled HMLE-Twist cells, treating the resulting co-cultures with compounds. As a positive control for this experiment we treated co-cultures with blasticidin, which selects for the differentiated HMLE-GFP cells, which harbor a blasticidin-resistance gene.
For the mix experiments, unlabelled and GFP-labeled cells were mixed at the indicated ratios and seeded onto 6-well plates. Triplicate wells were then treated with dmso or the compounds (paclitaxel, salinomycin, abamectin and blasticidin) for 48 hrs. The cells were washed with PBS, trypsinized and analyzed by FACS for GFP positivity.

SMILES: CC(=O)O[C@H]1C(=O)[C@@]2(C)[C@H]([C@H](OC(=O)c3ccccc3)[C@]3(O)C[C@H](OC(=O)[C@H](O)[C@@H](NC(=O)c4ccccc4)c4ccccc4)C(C)=C1C3(C)C)[C@]1(OC(C)=O)CO[C@@H]1C[C@@H]2O [paclitaxel]
- IC50 for HMLERsiEcad cells relative to IC50 for HMLERsiGFP cells (HMLERshEcad cells; 3 days, various concentrations): significantly higher
- resistance of HMLERshEcad cells compared to HMLERshCntrl cells (HMLERshEcad cells): significantly more resistant
- resistance of HMLERshEcad cells compared to HMLERshCntrl cells (HMLERshEcad cells; listed as Paclitaxel): more resistant
- resistance of HMLEshEcad cells relative to HMLEshCntrl control cells (HMLEshEcad cells [1]): increased resistance

SMILES: CC[C@@H](C(=O)[C@@H](C)[C@@H](O)[C@H](C)[C@@H]1O[C@@H]([C@@H](CC)C(=O)O)CC[C@@H]1C)[C@H]1O[C@]2(C=C[C@@H](O)[C@]3(CC[C@@](C)([C@H]4CC[C@](O)(CC)[C@H](C)O4)O3)O2)[C@H](C)C[C@@H]1C [salinomycin]
- IC50 fold lower for HMLEshEcad cells vs HMLEshCntrl cells (HMLEshEcad cells [2]; 3 day treatment, 8 concentrations): ~10 fold
- selective toxicity towards HMLEshEcad cells relative to HMLEshCntrl cells (HMLEshEcad cells [2]): moderate to strong selectivity; also recorded: strong specificity
- selective toxicity towards HMLEshEcad cells relative to HMLEshCntrl cells (HMLEshEcad cells [2]; listed as Salinomycin): selective toxicity
- selectivity for HMLE-Twist cells vs HMLEshCntrl; dose-response curves compared with HMLEshEcad (HMLE-Twist cells [3]): is retained
- GFP-positive fraction relative to DMSO-treated controls (HMLE-Twist cells [4]; GFP-labeled HMLE + unlabeled HMLE-Twist): increase
- proportion of HMLETwist cells in co-culture with control cells (HMLE-Twist cells [4]; Salinomycin 1.25 or 5 μM, Abamectin 0.25 or 1.25 μM): dose-dependent decrease; also recorded: selection against the GFP-negative HMLE-twist cells
